The supplement of paper PMC12137928
Structures can show the parent of a compound that is named as a salt.

Key:
[1] = system: HCT116; conditions: 72 h
How it was run: (§1)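 For IC50 and maximal efficacy, four-parameter Hill fits were used. Input values were CellTiter-Glo luminescence from HCT116 cells seeded at 250 per well in 1536-well plates, normalized to vehicle (0%) and positive control (-100%). Pattern correction followed normalization.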

[2] = system: HCT116; assay: efficacy (maximum % inhibition of viability vs DMSO); higher = more cytotoxic; conditions: 72 h
How it was run: as §1

SMILES	IC50 cell viability ([1]; ICRF193 0 nM) [µM]	IC50 cell viability ([1]; ICRF193 200 nM) [µM]	efficacy ([2]; ICRF193 200 nM) [%]	efficacy ([2]; ICRF193 0 nM) [%]
C[C@]12CC[C@@H]3c4ccc(O)cc4CC[C@H]3[C@@H]1CC[C@@H]2O [Estradiol]	18.3	29.1	51.8	49.5
Cc1c(Cl)c(C)[n+]([O-])c(Cl)c1-c1noc(-c2cc(O)c(O)c([N+](=O)[O-])c2)n1 [Opicapone]	> 45.8	29.1	98.7	–
C[C@H]1O[C@@H](O[C@H]2CC[C@@]3(C)[C@H](CC[C@@H]4[C@@H]3C[C@@H](O)[C@]3(C)[C@@H](C5=CC(=O)OC5)CC[C@]43O)C2)C[C@H](O)[C@@H]1O[C@H]1C[C@H](O)[C@H](O[C@H]2C[C@H](O)[C@H](O[C@@H]3O[C@H](CO)[C@@H](O)[C@H](O)[C@H]3O)[C@@H](C)O2)[C@@H](C)O1 [Deslanoside]	0.231	0.231	78.1	85.6
C[C@@H]1CCO[C@H]2Cn3cc(C(=O)NCc4ccc(F)cc4F)c(=O)c(O)c3C(=O)N12	25.9	20.6	106	82.5
COc1c(OCCCN2CCOCC2)ccc2c1N=C(NC(=O)c1cnc(N)nc1)N1CCN=C21 [Copanlisib]	0.944	0.473	65.9	59.1
CCCCCCCCCCCCCCCC[n+]1ccccc1 [Cetylpyridinium bromide]	2.59	2.59	90.4	90.6
CCCCCCCCCC(=O)OCCN1CCN(CCCN2c3ccccc3Sc3ccc(C(F)(F)F)cc32)CC1 [Fluphenazine decanoate dihydrochloride]	20.6	20.6	99.6	81
CO[C@H]1C(=O)[C@]2(C)[C@@H](OC)C[C@H]3OC[C@@]3(OC(C)=O)[C@H]2[C@H](OC(=O)c2ccccc2)[C@]2(O)C[C@H](OC(=O)[C@H](O)[C@@H](NC(=O)OC(C)(C)C)c3ccccc3)C(C)=C1C2(C)C [Cabazitaxel]	> 45.8	0.0058	65.5	–
Cc1oncc1C(=O)Nc1ccc(C(F)(F)F)cc1 [Leflunomide]	20.6	13	55.8	57.6
COc1cc([C@@H]2c3cc4c(cc3[C@@H](O[C@@H]3O[C@@H]5CO[C@@H](C)O[C@H]5[C@H](O)[C@H]3O)[C@H]3COC(=O)[C@H]23)OCO4)cc(OC)c1OP(=O)(O)O [Etoposide  Phosphate]	0.517	0.366	79.9	60.8
Oc1cccc2cccnc12 [OXYQUINOLINE HEMISULFATE]	23.1	18.3	88.8	86.7
CCc1c(Cl)c(O)c(Cl)c(O)c1C(=O)O[C@H]1[C@H](O)[C@H](OC)[C@H](OC/C2=C\C=C\C[C@H](O)/C(C)=C/[C@H](CC)[C@@H](O[C@@H]3OC(C)(C)[C@@H](OC(=O)C(C)C)[C@H](O)[C@@H]3O)/C(C)=C/C(C)=C/C[C@@H]([C@@H](C)O)OC2=O)O[C@@H]1C [Fidaxomicin]	20.6	20.6	53.2	103
CCOC(=O)Oc1c(OC)cc(C(=O)O[C@@H]2C[C@@H]3CN4CCc5c([nH]c6cc(OC)ccc56)[C@H]4C[C@@H]3[C@H](C(=O)OC)[C@H]2OC)cc1OC [Syrosingopine]	29.1	16.4	101	112
CC[C@@]1(O)C(=O)OCc2c1cc1n(c2=O)Cc2cc3c(CN(C)C)c(O)ccc3nc2-1 [Topotecan hydrochloride]	0.73	0.206	102	94.2
CC[C@@H]1/C=C(\C)C[C@H](C)C[C@H](OC)[C@H]2O[C@@](O)(C(=O)C(=O)N3CCCC[C@H]3C(=O)O[C@H](/C(C)=C/[C@@H]3CC[C@H](Cl)[C@H](OC)C3)[C@H](C)[C@@H](O)CC1=O)[C@H](C)C[C@@H]2OC [Pimecrolimus]	14.6	18.3	63.4	62.4
CC/N=C(\NCC)NCCCC[C@H](NC(=O)[C@H](CC(C)C)NC(=O)[C@@H](CCCCN/C(=N/CC)NCC)NC(=O)[C@H](Cc1ccc(O)cc1)NC(=O)[C@H](CO)NC(=O)[C@@H](Cc1cccnc1)NC(=O)[C@@H](Cc1ccc(Cl)cc1)NC(=O)[C@@H](Cc1ccc2ccccc2c1)NC(C)=O)C(=O)N1CCC[C@H]1C(=O)N[C@H](C)C(N)=O [Ganirelix]	4.61	5.17	82.7	80.9

Continued, in another order:

IC50 cell viability ([1]; ICRF193 0 nM) [µM]	IC50 cell viability ([1]; ICRF193 200 nM) [µM]	SMILES	efficacy ([2]; ICRF193 200 nM) [%]	efficacy ([2]; ICRF193 0 nM) [%]
> 45.8	20.6	CN(C)CCC=C1c2ccccc2C=Cc2ccccc21 [Cyclobenzaprine hydrochloride]	52.3	–
29.1	> 45.8	O=c1c(-c2ccccc2)c1-c1ccccc1 [Diphenylcyclopropenone]	–	100
25.9	16.4	OCCN1CCN(CC/C=C2/c3ccccc3Sc3ccc(C(F)(F)F)cc32)CC1 [cis-Flupentixol]	102	119
16.4	16.4	COc1ccc(-n2nc(CCC(=O)N(C)O)cc2-c2ccc(Cl)cc2)cc1 [Tepoxalin]	88.3	93.4
20.6	25.9	Clc1ccc(CCC(Cn2ccnc2)Sc2c(Cl)cccc2Cl)cc1 (stereo not given) [Butoconazole nitrate]	93.9	96
23.1	9.2	Nc1c2ccccc2nc2ccccc12 [9-Aminoacridine, monohydrochloride, monohydrate]	90.6	103
29.1	> 45.8	CC(C)=CCOc1ccc(/C=C/C(=O)c2ccc(OCC=C(C)C)cc2OCC(=O)O)cc1 [Sofalcone]	–	108
20.6	29.1	CN(C)CCCN1c2ccccc2Sc2ccc(Cl)cc21 [Chlorpromazine]	93.2	117
20.6	29.1	CN1CCc2cccc3c2[C@H]1Cc1ccc(O)c(O)c1-3 [Apomorphine]	107	116
